According to ChEMBL document CHEMBL5316339, “Discovery of a Series of Substituted 1H-((1,2,3-Triazol-4-yl)methoxy)pyrimidines as Brain Penetrants and Potent GluN2B-Selective Negative Allosteric Modulators” (J Med Chem, 2023):

What was measured:
[1] = Cmax in Sprague-Dawley rat at 5 mg/kg, po measured for 24 hrs by LC-MS/MS analysis; assay type: ADME, organism-based; design: time 24 hrs, dose 5 mg/kg, route po; details: in vivo
Cytochrome P450 2C19 = Cytochrome P450 2C19 (Homo sapiens, UniProt P33261); test: Inhibition of CYP2C19 in human liver microsomes incubated for 10 mins by LC-MS/MS analysis; assay type: ADME, Microsome
[2] = Drug concentration in Sprague-Dawley rat plasma at 10 mg/kg, po measured after 0.25 hrs; assay type: ADME, organism-based
[3] = target: Glutamate receptor ionotropic, NMDA 2B (Rattus norvegicus, UniProt Q00960); test: Displacement of 3-(3H) 1-(azetidin-1-yl)-2-(6- (4-fluoro-3-methyl-phenyl)pyrrolo-[…] pyridin-1yl)ethanone from GluN2B receptor in rat cortical membrane assessed as inhibition constant incubated for 2 hrs under shaking condition by liquid scintillator counter analysis; assay type: cell membranes, Cortex
[4] = Plasma protein binding in Sprague-Dawley rat assessed as free fraction; assay type: ADME, cell-free
Cytochrome P450 2D6 = Cytochrome P450 2D6 (Homo sapiens, UniProt P10635); test: Inhibition of CYP2D6 in human liver microsomes incubated for 10 mins by LC-MS/MS analysis; assay type: ADME, Microsome
[5] = Unbound brain to plasma concentration ratio in Sprague-Dawley rat at 10 mg/kg, po measured after 0.25 hrs; assay type: ADME, organism-based; details: brain and plasma, read-out: K(p,uu,brain)
[6] = Oral bioavailability in Sprague-Dawley rat at 5 mg/kg measured for 24 hrs by LC-MS/MS analysis; assay type: ADME, organism-based; details: in vivo
[7] = Drug concentration in Sprague-Dawley rat plasma at 10 mg/kg, po measured after 0.5 hrs; assay type: ADME, organism-based
Cytochrome P450 1A2 = target: T1, Cytochrome P450 1A2 (Homo sapiens, UniProt P05177); test: Inhibition of CYP1A2 in human liver microsomes incubated for 10 mins by LC-MS/MS analysis; assay type: ADME, Microsome
T1 sequence (P05177 whole entry): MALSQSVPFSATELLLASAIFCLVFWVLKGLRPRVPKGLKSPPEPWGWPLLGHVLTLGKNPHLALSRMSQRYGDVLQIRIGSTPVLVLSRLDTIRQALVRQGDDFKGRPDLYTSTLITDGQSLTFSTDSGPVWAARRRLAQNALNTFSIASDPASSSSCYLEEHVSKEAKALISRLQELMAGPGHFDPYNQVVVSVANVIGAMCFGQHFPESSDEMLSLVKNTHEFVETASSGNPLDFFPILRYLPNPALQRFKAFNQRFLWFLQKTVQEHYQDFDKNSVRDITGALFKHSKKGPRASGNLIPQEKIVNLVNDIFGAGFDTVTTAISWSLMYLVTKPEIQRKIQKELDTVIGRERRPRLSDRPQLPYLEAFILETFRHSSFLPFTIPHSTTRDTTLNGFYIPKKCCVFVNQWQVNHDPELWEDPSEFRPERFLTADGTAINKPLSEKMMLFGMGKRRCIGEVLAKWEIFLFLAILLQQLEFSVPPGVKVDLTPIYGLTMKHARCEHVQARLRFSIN

[8] = Unbound brain to plasma concentration ratio in Sprague-Dawley rat at 10 mg/kg, po measured after 2 hrs; assay type: ADME, organism-based; details: brain and plasma, read-out: K(p,uu,brain)
[9] = Drug concentration in Sprague-Dawley rat brain assessed as free fraction; assay type: ADME, tissue-based
[10] = Drug concentration in Sprague-Dawley rat brain at 10 mg/kg, po measured after 0.25 hrs; assay type: ADME, organism-based; details: read-out: Ct
[11] = Drug metabolism in rat liver microsomes at 0.014 to 0.37 uM incubated for 60 mins; assay type: ADME, Microsome; details: 1 h, dose 0.014-0.37 µM
[12] = Drug concentration in Sprague-Dawley rat brain at 10 mg/kg, po measured after 0.5 hrs; assay type: ADME, organism-based; details: read-out: Ct
[13] = Drug concentration in Sprague-Dawley rat plasma at 10 mg/kg, po measured after 2 hrs; assay type: ADME, organism-based
Brain [14] = test: Ex vivo receptor occupancy at GluN2B receptor in Sprague-Dawley rat brain at 10 mg/kg, po measured after 2 hrs by 3 [3H] 1-(azetidin- 1-yl-2[6-(4-fluoro-3-methyl-pheny)pyrrolo[3,2-b]pyridin-1-yl]ethanon based autoradiography relative to control; assay type: functional
MDR1 (P-gp) = test: Efflux ratio of apparent permeability from basolateral to apical side over apical to basolateral side in MDCK-MDR1 cells at 5 uM incubated for 60 mins by LC-MS/MS analysis; assay type: ADME, cell-based, Canis lupus familiaris; details: dog
[15] = Drug concentration in Sprague-Dawley rat brain at 10 mg/kg, po measured after 2 hrs; assay type: ADME, organism-based; details: read-out: Ct
Brain [16] = test: Ex vivo receptor occupancy at GluN2B receptor in Sprague-Dawley rat brain at 10 mg/kg, po measured after 0.25 hrs by 3 [3H] 1-(azetidin- 1-yl-2[6-(4-fluoro-3-methyl-pheny)pyrrolo[3,2-b]pyridin-1-yl]ethanon based autoradiography relative to control; assay type: functional
Hippocampus = test: Ex vivo receptor occupancy at GluN2B receptor in Sprague-Dawley rat brain hippocampus at 0.01 to 3 mg/kg, po measured after 2 hrs by 3 [3H] 1-(azetidin- 1-yl-2[6-(4-fluoro-3-methyl-pheny)pyrrolo[3,2-b]pyridin-1-yl]ethanon based autoradiography relative to control; assay type: functional; details: dose 0.01-3 mg/kg
Cytochrome P450 2C9 = Cytochrome P450 2C9 (Homo sapiens, UniProt P11712); test: Inhibition of CYP2C9 in human liver microsomes incubated for 10 mins by LC-MS/MS analysis; assay type: ADME, Microsome
[17] = Drug metabolism in rat hepatocytes at 0.01 to 0.1 uM incubated for 4 hrs; assay type: ADME, cell-based, Hepatocyte; details: dose 0.01-0.1 µM
[18] = target: Glutamate receptor ionotropic, NMDA 2A (Homo sapiens, UniProt Q05586+Q12879); test: Inhibition of human GluN2A receptor by FLIPR assay
Brain [19] = test: Ex vivo receptor occupancy at GluN2B receptor in Sprague-Dawley rat brain at 10 mg/kg, po measured after 0.5 hrs by 3 [3H] 1-(azetidin- 1-yl-2[6-(4-fluoro-3-methyl-pheny)pyrrolo[3,2-b]pyridin-1-yl]ethanon based autoradiography relative to control; assay type: functional
[20] = Volume of distribution at steady state in Sprague-Dawley rat at 5 mg/kg, po or 1 mg/kg, iv measured for 24 hrs by LC-MS/MS analysis; assay type: ADME, organism-based; details: in vivo
Cytochrome P450 2C8 = target: T2, Cytochrome P450 2C8 (Homo sapiens, UniProt P10632); test: Inhibition of CYP2C8 in human liver microsomes incubated for 10 mins by LC-MS/MS analysis; assay type: ADME, Microsome
T2 sequence (P10632 whole entry): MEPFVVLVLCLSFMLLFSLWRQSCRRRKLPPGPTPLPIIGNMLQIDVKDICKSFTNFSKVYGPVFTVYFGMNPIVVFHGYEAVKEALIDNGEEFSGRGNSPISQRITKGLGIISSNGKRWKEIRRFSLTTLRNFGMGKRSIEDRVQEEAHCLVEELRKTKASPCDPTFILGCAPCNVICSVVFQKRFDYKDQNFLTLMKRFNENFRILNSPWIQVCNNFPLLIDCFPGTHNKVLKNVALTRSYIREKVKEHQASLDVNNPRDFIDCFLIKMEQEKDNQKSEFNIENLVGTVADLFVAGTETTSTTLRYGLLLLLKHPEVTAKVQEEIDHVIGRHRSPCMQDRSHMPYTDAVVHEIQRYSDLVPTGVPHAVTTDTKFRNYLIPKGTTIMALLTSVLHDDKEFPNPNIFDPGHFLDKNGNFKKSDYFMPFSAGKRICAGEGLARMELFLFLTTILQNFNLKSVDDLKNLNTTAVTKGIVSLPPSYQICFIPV

[21] = target: Glutamate receptor ionotropic, NMDA 2C (Homo sapiens, UniProt Q05586+Q14957); test: Inhibition of human GluN2C receptor by FLIPR assay
[22] = Drug metabolism in human liver microsomes assessed as O-dearylation mediated (1-(4-chloro-3-(difluoromethoxy)phenyl)-1H-1,2,3-triazol-4-yl)methanol metabolite formation at 0.1 uM in presence of NADPH; assay type: ADME, Microsome
[23] = Unbound brain to plasma concentration ratio in Sprague-Dawley rat at 10 mg/kg, po measured after 0.5 hrs; assay type: ADME, organism-based; details: brain and plasma, read-out: K(p,uu,brain)
[24] = Drug metabolism in human liver microsomes assessed as O-dearylation mediated 1-(4-chloro-3-(difluoromethoxy)phenyl)-1H-1,2,3-triazole-4-carboxylic acid metabolite formation at 0.1 uM in presence of NADPH; assay type: ADME, Microsome
[25] = target: Voltage-gated inwardly rectifying potassium channel KCNH2 (Homo sapiens, UniProt Q12809); test: Displacement of [3H]dofetilide from human ERG expressed in HEK293 cells; assay type: toxicity, cell-based
[26] = target: Glutamate NMDA receptor; GRIN1/GRIN2B (Homo sapiens, UniProt Q05586+Q13224); test: Negative allosteric modulation of human GluN1A/GluN2B receptor expressed in T-REX-CHO cells preincubated for 5 mins followed by glutamate and glycine addition and measured after 5 mins by FLIPR assay; assay type: cell-based
[27] = target: Glutamate receptor ionotropic, NMDA 2D (Homo sapiens, UniProt O15399+Q05586); test: Inhibition of human GluN2D receptor by FLIPR assay

Sequence of Glutamate receptor ionotropic, NMDA 2B (Q00960 whole entry): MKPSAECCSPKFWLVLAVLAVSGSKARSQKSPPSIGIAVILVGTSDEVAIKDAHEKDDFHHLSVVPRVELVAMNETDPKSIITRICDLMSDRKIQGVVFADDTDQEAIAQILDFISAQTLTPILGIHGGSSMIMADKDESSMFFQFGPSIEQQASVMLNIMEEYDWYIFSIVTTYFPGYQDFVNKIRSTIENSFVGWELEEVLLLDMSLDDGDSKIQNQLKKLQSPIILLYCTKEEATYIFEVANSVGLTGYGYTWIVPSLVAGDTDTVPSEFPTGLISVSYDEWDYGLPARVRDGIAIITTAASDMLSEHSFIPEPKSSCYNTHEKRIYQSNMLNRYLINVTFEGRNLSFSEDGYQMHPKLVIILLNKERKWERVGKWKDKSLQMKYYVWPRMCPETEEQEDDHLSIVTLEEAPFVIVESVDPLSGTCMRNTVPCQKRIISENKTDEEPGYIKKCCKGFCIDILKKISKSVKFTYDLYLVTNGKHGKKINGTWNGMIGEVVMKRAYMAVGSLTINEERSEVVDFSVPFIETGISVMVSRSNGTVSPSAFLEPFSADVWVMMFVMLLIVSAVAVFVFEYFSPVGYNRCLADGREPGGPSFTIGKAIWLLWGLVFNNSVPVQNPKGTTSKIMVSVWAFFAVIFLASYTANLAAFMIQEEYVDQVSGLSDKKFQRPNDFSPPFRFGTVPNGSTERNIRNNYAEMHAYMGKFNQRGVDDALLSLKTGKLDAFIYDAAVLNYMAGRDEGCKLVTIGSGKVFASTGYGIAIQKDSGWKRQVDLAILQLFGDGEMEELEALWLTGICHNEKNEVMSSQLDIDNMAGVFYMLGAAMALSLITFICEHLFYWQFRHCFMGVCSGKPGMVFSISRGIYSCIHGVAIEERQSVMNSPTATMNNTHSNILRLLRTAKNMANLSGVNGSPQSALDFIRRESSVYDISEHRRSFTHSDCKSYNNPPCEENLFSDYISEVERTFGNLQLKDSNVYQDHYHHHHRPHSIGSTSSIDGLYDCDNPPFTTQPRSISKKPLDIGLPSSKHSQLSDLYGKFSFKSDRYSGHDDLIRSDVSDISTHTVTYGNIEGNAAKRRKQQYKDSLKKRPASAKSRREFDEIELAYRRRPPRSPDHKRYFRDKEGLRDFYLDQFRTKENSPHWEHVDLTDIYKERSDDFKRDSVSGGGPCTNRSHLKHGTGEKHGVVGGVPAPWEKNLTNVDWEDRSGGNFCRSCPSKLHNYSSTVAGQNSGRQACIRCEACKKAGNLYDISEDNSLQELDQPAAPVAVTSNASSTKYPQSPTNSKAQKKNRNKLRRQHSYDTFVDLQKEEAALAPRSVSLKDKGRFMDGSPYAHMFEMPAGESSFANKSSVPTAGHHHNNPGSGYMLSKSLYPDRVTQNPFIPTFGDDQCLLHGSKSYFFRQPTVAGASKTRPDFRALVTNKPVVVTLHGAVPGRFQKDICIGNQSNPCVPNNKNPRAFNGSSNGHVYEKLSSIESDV
Sequence of Cytochrome P450 2D6 (P10635 whole entry): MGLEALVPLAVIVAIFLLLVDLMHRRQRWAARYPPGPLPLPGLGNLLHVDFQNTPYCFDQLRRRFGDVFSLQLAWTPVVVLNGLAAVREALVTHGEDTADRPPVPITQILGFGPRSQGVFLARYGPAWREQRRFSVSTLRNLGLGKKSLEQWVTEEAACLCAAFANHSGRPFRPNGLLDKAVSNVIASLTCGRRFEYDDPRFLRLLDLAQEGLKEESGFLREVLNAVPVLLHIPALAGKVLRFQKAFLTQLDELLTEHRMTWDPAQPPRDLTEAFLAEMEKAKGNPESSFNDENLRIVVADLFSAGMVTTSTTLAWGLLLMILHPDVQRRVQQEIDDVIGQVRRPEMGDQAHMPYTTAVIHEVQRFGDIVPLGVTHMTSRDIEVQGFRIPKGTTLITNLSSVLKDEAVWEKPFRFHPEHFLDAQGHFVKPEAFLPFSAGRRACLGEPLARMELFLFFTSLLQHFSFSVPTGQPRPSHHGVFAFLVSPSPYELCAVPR
Sequence of Voltage-gated inwardly rectifying potassium channel KCNH2 (Q12809 whole entry): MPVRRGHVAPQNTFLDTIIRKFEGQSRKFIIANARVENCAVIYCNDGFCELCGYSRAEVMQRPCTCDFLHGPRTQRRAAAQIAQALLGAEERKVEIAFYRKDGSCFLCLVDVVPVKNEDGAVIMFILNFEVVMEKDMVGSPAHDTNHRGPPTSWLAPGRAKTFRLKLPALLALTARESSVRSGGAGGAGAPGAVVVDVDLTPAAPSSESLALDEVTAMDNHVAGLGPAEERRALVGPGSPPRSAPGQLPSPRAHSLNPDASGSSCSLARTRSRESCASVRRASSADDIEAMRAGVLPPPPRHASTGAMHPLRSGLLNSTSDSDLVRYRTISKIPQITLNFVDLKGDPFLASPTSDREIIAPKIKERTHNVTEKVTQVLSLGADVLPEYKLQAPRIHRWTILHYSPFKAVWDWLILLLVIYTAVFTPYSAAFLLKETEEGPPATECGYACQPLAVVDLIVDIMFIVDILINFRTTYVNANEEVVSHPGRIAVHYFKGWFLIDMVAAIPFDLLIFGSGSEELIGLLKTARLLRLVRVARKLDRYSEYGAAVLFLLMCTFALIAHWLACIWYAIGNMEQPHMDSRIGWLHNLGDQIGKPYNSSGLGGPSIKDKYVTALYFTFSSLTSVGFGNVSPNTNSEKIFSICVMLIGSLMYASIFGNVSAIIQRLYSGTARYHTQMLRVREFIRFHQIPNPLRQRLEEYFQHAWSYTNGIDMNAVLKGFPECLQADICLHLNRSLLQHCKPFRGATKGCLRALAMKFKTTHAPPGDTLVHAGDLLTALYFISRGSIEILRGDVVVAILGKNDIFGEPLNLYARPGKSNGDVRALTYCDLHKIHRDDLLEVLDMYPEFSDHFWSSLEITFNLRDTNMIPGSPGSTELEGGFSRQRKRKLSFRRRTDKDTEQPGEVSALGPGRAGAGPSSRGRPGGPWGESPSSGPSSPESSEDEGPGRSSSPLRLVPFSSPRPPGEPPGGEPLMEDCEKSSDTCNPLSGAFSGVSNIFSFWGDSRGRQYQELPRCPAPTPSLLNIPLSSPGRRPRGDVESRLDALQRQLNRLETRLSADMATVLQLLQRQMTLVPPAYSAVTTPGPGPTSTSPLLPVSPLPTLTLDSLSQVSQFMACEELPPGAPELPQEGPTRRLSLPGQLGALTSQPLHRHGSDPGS
Sequence of Cytochrome P450 2C9 (P11712 whole entry): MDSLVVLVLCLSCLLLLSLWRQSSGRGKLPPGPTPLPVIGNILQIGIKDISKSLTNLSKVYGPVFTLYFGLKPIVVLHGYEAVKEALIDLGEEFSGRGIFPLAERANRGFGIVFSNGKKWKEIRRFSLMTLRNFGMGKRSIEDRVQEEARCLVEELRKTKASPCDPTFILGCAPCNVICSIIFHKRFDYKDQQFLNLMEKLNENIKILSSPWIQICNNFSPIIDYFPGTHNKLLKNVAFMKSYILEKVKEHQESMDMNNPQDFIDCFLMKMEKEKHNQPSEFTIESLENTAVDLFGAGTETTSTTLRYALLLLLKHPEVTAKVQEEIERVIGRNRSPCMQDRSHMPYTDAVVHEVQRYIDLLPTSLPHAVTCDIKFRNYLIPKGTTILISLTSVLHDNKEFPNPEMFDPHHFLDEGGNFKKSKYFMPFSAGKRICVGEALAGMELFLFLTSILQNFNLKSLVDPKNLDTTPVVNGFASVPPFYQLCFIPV
Sequence of Cytochrome P450 2C19 (P33261 whole entry): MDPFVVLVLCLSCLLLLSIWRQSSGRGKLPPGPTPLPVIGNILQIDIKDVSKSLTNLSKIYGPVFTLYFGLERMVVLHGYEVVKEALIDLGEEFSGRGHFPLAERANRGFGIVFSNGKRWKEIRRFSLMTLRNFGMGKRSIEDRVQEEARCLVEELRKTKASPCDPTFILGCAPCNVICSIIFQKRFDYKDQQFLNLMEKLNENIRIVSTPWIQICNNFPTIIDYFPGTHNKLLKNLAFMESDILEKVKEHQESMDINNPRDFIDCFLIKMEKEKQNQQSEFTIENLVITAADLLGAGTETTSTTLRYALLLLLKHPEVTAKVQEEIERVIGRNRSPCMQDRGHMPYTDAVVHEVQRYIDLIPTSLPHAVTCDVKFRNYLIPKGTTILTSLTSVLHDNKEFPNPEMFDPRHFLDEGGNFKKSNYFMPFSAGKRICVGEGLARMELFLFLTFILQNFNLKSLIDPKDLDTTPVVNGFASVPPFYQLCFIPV

Cmax [1]: 808 ng/mL
IC50 (Cytochrome P450 2C19): > 10 µM
concentration at 0.25 h [2]: 3040 ng/mL
Ki [3]: 0.094 µM
fraction unbound [4]: 0.024
IC50 (Cytochrome P450 2D6): > 10 µM
Kp uu at 0.25 h [5]: 0.91
bioavailability [6]: 78%
concentration at 0.5 h [7]: 5120 ng/mL
IC50 (Cytochrome P450 1A2): > 10 µM
Kp uu at 2 h [8]: 0.72
fraction unbound [9]: 0.051
concentration at 0.25 h [10]: 1290 ng/g
Drug metabolism [11]: Metabolite_Detected
concentration at 0.5 h [12]: 1920 ng/g
concentration at 2 h [13]: 8650 ng/mL
efflux ratio at 1 h, 5 µM (MDR1 (P-gp)): 1
concentration at 2 h [15]: 3010 ng/g
IC50 (Cytochrome P450 2C9): > 10 µM
Drug metabolism [17]: Metabolite_Detected
IC50 [18]: > 10 µM
Vdss [20]: 0.51 L/kg
IC50 (Cytochrome P450 2C8): > 10 µM
IC50 [21]: > 10 µM
Drug metabolism [22]: Metabolite_Detected
Kp uu at 0.5 h [23]: 0.78
Drug metabolism [24]: Metabolite_Detected
IC50 [26]: 0.011 µM
IC50 [27]: > 10 µM
SMILES: FC(F)Oc1cc(-n2cc(COc3ncccn3)nn2)ccc1Cl
Occ (Brain [14]): 85%
Occ (Brain [16]): 71%
Occ (Hippocampus): <10%
Occ (Brain [19]): 92%
IC50 [25]: > 10 µM
